Key:
[1] = molecular target: human phosphodiesterase III (PDE III); settings: cited from earlier work
[2] = test system: erythroid or myelomonocytic differentiation; settings: stimulated by erythropoietin or granulocyte-macrophage colony-stimulating factor; cited from earlier work
[3] = test system: TPO-induced megakaryocytopoiesis; settings: cited from earlier work
[4] = cited from earlier work
platelet count = settings: patients with thrombocythemia secondary to a myeloproliferative disorder; cited from earlier work
[5] = test system: human phosphodiesterase III (PDE III); assay: PDE III inhibition; assay type: biochemical; settings: more potent than anagrelide
From the text: In early volunteer trials, the most frequently reported adverse effects AEs other than headache were palpitations, postural dizziness and nausea. During patient studies, the most frequently reported drug-related AEs were headache, palpitations, oedema/fluid retention, nausea/vomiting, diarrhea, dizziness and abdominal pain. These effects are all likely to arise from the secondary, cardiovascular pharmacology associated with anagrelide resulting from its inhibitory effects on human phosphodiesterase III (PDE III). […] Inhibition of myocardial PDE III leads to positive inotropy (increasing of the force of contractions of the heart), increased chronotropy (increase in heart rate), and peripheral vasodilatation. Such cardiovascular manifestations of this inhibition are typically seen with the classical positive inotropes, milrinone and enoximone, and exploited in the short-term acute treatment of congestive heart failure. However, in the treatment of a so-called silent disease (i.e., asymptomatic) such as ET, the cardiovascular side-effects of palpitations and tachycardia associated with anagrelide limit its utility and a significant proportion of patients—reportedly between 25 and 50%—fail to tolerate the drug during long term treatment.
The PDE III inhibitory properties of anagrelide are quite distinct from its platelet lowering anti-megakaryocytic effects. […]

[6] = Pharmacokinetics in humans; assay type: in vivo, human; settings: after anagrelide treatment
From the text: The PDE III inhibitory properties of anagrelide are quite distinct from its platelet lowering anti-megakaryocytic effects. Indeed studies have shown no correlation between potency as a PDE III inhibitor and anti-megakaryocytic effects for anagrelide and its principal pharmacologically active metabolite, 3-hydroxyanagrelide (3-OH anagrelide or 3-HA, formerly known as SPD604 or BCH24426). […] Anagrelide's active metabolite, 3-HA, is present in vivo in amounts greatly exceeding those of the parent drug with typical exposures being 2-3 fold greater. Thus by implication 3-OH anagrelide is likely to be a major contributor to the pharmacological actions of the drug.
The metabolism of anagrelide generally proceeds extremely rapidly, resulting in a less than ideal pharmacokinetic profile of the drug. […] This, combined with the side-effects profile, can lead to poor patient compliance. Furthermore, anagrelide undergoes a large first pass effect (>50%) leading to considerable intersubject variation in achieved exposures and, therefore, potentially variable drug response. Also, exposure to the pharmacologically active metabolite varies dramatically between patients since its formation is dependent on CYP1A, an enzyme whose expression is highly dependent on exposure to inducing agents such as cigarette smoke. […]

potency as PDE III inhibitor relative to anagrelide [5] | in vivo exposure relative to parent drug [6] | Compound | IC50 [1] [nM] | effect on erythroid or myelomonocytic differentiation [2] | IC50 ([3]; in vitro, human megakaryocytopoiesis, read-out: estimated IC50, inhibition of TPO-induced megakaryocytopoiesis) [nM] | first pass effect ([4]; in vivo) [%] | time to complete response (platelet count ≦600×10^9/L) (platelet count) [weeks] | potency in inhibition of megakaryocytopoiesis relative to anagrelide [3] | half-life ([4]; typical) [h]
– | – | Cc1[nH]c(=O)c(C#N)cc1-c1ccncc1 [milrinone] | 170 to 350 | – | – | – | – | – | –
– | – | O=C1CN2Cc3c(ccc(Cl)c3Cl)N=C2N1 [Anagrelide, 6,7-dichloro-1,5-dihydroimidazo[2,1-b]-quinazolin-2(3H)-one] | ~29 | does not affect | ~26 | > 50 | 4 to 12 | – | –
over 40 fold | 2-3 fold | O=C1NC2=Nc3ccc(Cl)c(Cl)c3CN2C1O (stereo not shown) [3-hydroxyanagrelide] | – | – | – | – | – | no more potent than the parent drug | 2.5

Source: patent US20110071171A1, “2H- PYRIMIDO [2, 1-B] QUINAZOLIN-2-ONE DERIVATIVES AND THEIR USE AS PLATELET ANTI-AGGREGATIVE AGENTS” (Shire LLC, priority 2008, published 2011)
